In the NIST ThermoML archive (doi:10.1016/j.tca.2015.07.018):
Numbers after ± are expanded uncertainties.

Conditions: for Triple point temperature: From the change of vapor pressure slope; for vapor or sublimation pressure: Crystal, Rate of evaporation

| SMILES | Triple point temperature (Crystal 1) [K] | Triple point temperature (Crystal 2) [K] | vapor or sublimation pressure (570 K) [kPa] | vapor or sublimation pressure (580 K) [kPa] | vapor or sublimation pressure (590 K) [kPa] | vapor or sublimation pressure (600 K) [kPa] | vapor or sublimation pressure (610 K) [kPa] | vapor or sublimation pressure (620 K) [kPa] | vapor or sublimation pressure (630 K) [kPa] | vapor or sublimation pressure (640 K) [kPa] |
| --- | --- | --- | --- | --- | --- | --- | --- | --- | --- | --- |
| [Cl][Cu] [copper monochloride] | 701 ± 6 | 688 ± 6 | – | – | – | – | – | – | – | – |
| [Cl-].[Cl-].[Cl-].[In+3] [indium chloride] | – | – | 0.004417 ± 0.00044 | 0.007462 ± 0.00075 | 0.01238 ± 0.0012 | 0.02021 ± 0.002 | 0.03245 ± 0.0032 | 0.05132 ± 0.0051 | 0.07998 ± 0.008 | 0.1229 ± 0.012 |
